Results reported in patent publication US9382286B2, “Treatment of EBV and KHSV infection and associated abnormal cellular proliferation” (EMORY UNIVERSITY, priority 2001, dated 2016).

Tests used:
HIV-1LAI = assay: Anti-HIV-1 activity in human PBM cells; type: cell-based; settings: Human immunodeficiency virus 1, PBMC; read-out: EC50 against human immunodeficiency virus type 1
Experimental: Anti-HIV-1 activity of the compounds was determined in human peripheral blood mononuclear (PBM) cells as described previously (Schinazi R. F., McMillan A., Cannon D., Mathis R., Lloyd R. M. Jr., Peck A., Sommadossi J.-P., St. Clair M., Wilson J., Furman P. A., Painter G., Choi W.-B., Liotta D. C. Antimicrob. Agents Chemother. 1992, 36, 2423; Schinazi, R. F., Sommadossi J.-P., Saalmann V., Cannon D., Xie M.-Y., Hart G., Smith G., Hahn E. Antimicrob. Agents Chemother. 1990, 34, 1061). Stock solutions (20-40 mM) of the compounds were prepared in sterile DMSO and then diluted to the desired concentration in growth medium. Cells were infected with the prototype HIV-1LAI at a multiplicity of infection of 0.01. Virus obtained from the cell supernatant was quantified on day 6 after infection by a reverse transcriptase assay using (rA)n.(dT)12-18 as template-primer. The DMSO present in the diluted solution (<0.1%) had no effect on the virus yield. AZT was included as positive control. The toxicity of some compounds was assessed in Vero, human PBM, and CEM cells, as described previously (Schinazi R. F., Sommadossi J.-P., Saalmann V., Cannon D. L., Xie M.-Y., Hart G. C., Smith G. A., Hahn E. F. Antimicrob Agents Chemother. 1990, 34, 1061-1067). Cycloheximide was included as positive cytotoxic control, and untreated cells exposed to solvent were included as negative controls. […]

EBV-TK = target: T1, EBV-TK (Epstein-Barr virus, UniProt P03177); assay: Selectivity for EBV-TK: thymidine phosphorylation competition and cytotoxicity assays on EBV-TK-expressing cells; type: cell-based; settings: EBV-TK versus human cellular thymidine kinase
T1 construct: expressed in transfected cells; host or cells: 143B TK- human osteosarcoma cells and 293 human embryonic kidney cells, stably transfected with pCMV EBV-TK
Experimental: J. Virol. 74, 684-692). EBV-TK was incubated in an optimized buffer with 15 μM 3H-dT as substrate in a final volume of 100 μL. The enzyme source was either lysate from 143B EBV-TK-expressing cells or purified GST EBV-TK from E. coli. The amount of enzyme was adjusted so that the reaction proceeded linearly for over 60 min. A 10-fold excess (150 μM) of the nucleoside analog being tested was included in the experiment. The reaction was halted at 30 min. by spotting 50 μL of the reaction onto positively charged DE-81 discs (Whatman). After washing four times with 5 mM ammonium formate and once with 95% ethanol, the discs were dried and counted in a scintillation counter. The CPM of the positive control reaction containing no nucleoside analog was taken as 100% activity.
This assay measures the ability of a candidate nucleoside to specifically eliminate EBV-infected cells in the continuous presence of drug. 143B TK-cells lack TK-1. 293 cells contain human TK-1. Therefore, these assays comparatively assess the effects of human TK expression on toxicity. Stock solutions (20-40 mM) of the compounds were prepared in sterile DMSO and then diluted to the desired concentration in growth medium. The cells (143B TK-, 293 EBV-TK or 293 Neo control cells) were cultured in the presence of drug for 5 days, and the media was replaced with fresh media containing drug on day three. Cells were then washed one time with PBS, fixed with 4% formaldehyde/1% methanol and stained with 1% crystal violet in 20% ethanol for visualization of the cell monolayer. […] Cultures with this designation often have media that is still “pink,” indicating a slowdown of cellular metabolism. Identical samples are assessed in triplicate.
Stock solutions (20-40 mM) of the compounds were prepared in sterile DMSO and then diluted to the desired concentration in growth medium. Exponentially growing cells were incubated with the nucleoside in question for 24 h, plated in 24-well plates at 50 viable cells per well and incubated for 7-9 days in the absence of drug. Cells were fixed and stained as above and colonies were counted. A nucleoside can cause a decrease in the number of colonies, which is an indirect indication of the number of cells able to survive and to replicate after the initial exposure to drug.
Two cell systems are employed to determine the toxicity of each nucleoside. The information obtained depends upon the system used. In 143B TK-cells, cytotoxic drugs that are dependent upon phosphorylation by a TK are easily identified. 143B TK-cells expressing either EBV-TK or hTK1 permit assessment of whether either enzyme independently may cause a drug to become cytotoxic. Thus, drugs that can be activated by hTK1, which would cause non-specific cytotoxicity, are readily identified. One drawback is that these cells are grown in HAT media that “forces” nucleosides through the TK salvage pathway (EBV-TK or hTK1). A false positive may arise if a nucleoside out-competes dT for phosphorylation such that sufficient amounts of dT are not available for cellular replication. This toxicity may not be present or may be reduced in a cell that has the synthetic as well as salvage pathways available for dTTP production. For this reason, the 293 system was developed. These cells have endogenous hTK1 and EBV-TK is maintained by selection in G418. Thus, the normal hTK1 salvage pathway is operational, and nucleosides can be expected to flux through the cells normally. Drugs are incubated with 293 cells transformed with a neomycin (Neo) expressing plasmid (Neo control) and with cells transfected with the same plasmid also expressing EBV-TK. A nucleoside selectively activated by EBV-TK should cause toxicity on 293 EBV-TK and not on 293 Neo control cells. In both the 143B and 293 cell systems, toxicity is evaluated by cell survival. The cells are cultured in the presence of drug for 5 days, and the media replaced with fresh media containing drug on day 3. […]

T1 sequence (P03177 whole entry): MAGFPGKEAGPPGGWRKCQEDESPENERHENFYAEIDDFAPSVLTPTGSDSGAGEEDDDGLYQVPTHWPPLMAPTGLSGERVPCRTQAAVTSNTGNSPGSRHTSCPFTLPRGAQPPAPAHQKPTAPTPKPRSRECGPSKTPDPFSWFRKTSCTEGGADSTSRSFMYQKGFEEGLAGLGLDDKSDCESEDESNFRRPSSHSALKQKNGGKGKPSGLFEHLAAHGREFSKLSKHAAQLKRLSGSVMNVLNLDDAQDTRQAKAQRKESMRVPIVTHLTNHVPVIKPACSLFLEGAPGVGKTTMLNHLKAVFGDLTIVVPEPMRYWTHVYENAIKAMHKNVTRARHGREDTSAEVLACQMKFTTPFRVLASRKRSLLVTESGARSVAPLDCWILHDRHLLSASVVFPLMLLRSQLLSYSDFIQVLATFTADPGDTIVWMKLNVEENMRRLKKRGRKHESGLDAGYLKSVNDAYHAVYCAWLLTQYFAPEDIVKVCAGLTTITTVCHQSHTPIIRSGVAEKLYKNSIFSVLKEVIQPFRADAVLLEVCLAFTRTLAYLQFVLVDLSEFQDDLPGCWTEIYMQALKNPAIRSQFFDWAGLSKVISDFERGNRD

Row | SMILES | EC50 (HIV-1LAI) | selectivity for EBV-TK (specifically phosphorylated and converted into a cytotoxic agent by EBV-TK) (EBV-TK)
1 | C#Cc1cn([C@H]2CC(O)[C@@H](CO)O2)c(=O)[nH]c1=O (stereo partly drawn) [5-ethynyl-dU, β-D-2′-deoxy-5-ethynyluridine] | 610 nM | –
2 | C=Cc1cn([C@H]2CC(O)[C@@H](CO)O2)c(=O)[nH]c1=O (stereo partly drawn) [5-vinyl-dU, β-D-2′-deoxy-5-vinyluridine] | – | selectivity for EBV-TK
3 | O=c1[nH]c(=O)n([C@@H]2CO[C@H](CO)O2)cc1-c1ccco1 [(2S,4S)-5-(2-furanyl)-1-[2-(hydroxymethyl)-1,3-dioxolan-4-yl]uracil] | – | selectivity for EBV-TK
4 | O=c1[nH]c(=O)n([C@@H]2CO[C@H](CO)O2)cc1-c1cccs1 [(2S,4S)-5-(2-thienyl)-1-[2-(hydroxymethyl)-1,3-dioxolan-4-yl]uracil] | – | selectivity for EBV-TK
5 | O=c1[nH]c(=O)n([C@@H]2CO[C@H](CO)O2)cc1/C=C/CO [(2S,4S)-5-(3-hydroxypropenyl)-1-[2-(hydroxymethyl)-1,3-dioxolan-4-yl]uracil] | – | selectivity for EBV-TK
6 | O=c1[nH]c(=O)n([C@@H]2CO[C@H](CO)O2)cc1-c1ccc(Br)o1 [(2S,4S)-5-(5-bromo-2-furanyl)-1-[2-(hydroxymethyl)-1,3-dioxolan-4-yl]uracil] | – | selectivity for EBV-TK
7 | O=c1[nH]c(=O)n([C@@H]2CO[C@H](CO)O2)cc1-c1ccc(Br)s1 [(2S,4S)-5-(5-bromthien-2-yl)-1-[2-(hydroxymethyl)-1,3-dioxolan-4-yl]uracil] | – | selectivity for EBV-TK
8 | O=c1[nH]c(=O)n([C@H]2CC(O)[C@@H](CO)O2)cc1CO (stereo partly drawn) [β-D-2′-deoxy-5-(hydroxymethyl)uridine] | – | selectivity for EBV-TK
9 | O=C(O)/C=C/c1cn([C@H]2CC(O)[C@@H](CO)O2)c(=O)[nH]c1=O (stereo partly drawn) [β-D-5-E-(2-carboxyvinyl)-2′-deoxyuridine] | – | selectivity for EBV-TK
10 | CCCCc1cn([C@H]2CC(O)[C@@H](CO)O2)c(=O)[nH]c1=O (stereo partly drawn) [β-D-5-butyl-2′-deoxyuridine] | – | selectivity for EBV-TK
11 | O=c1[nH]c(=O)n([C@@H]2CC(O)[C@H](CO)O2)cc1I (stereo partly drawn) [β-L-2′-deoxy-5-iodouridine] | – | selectivity for EBV-TK
12 | C=Cc1cn([C@@H]2CC(O)[C@H](CO)O2)c(=O)[nH]c1=O (stereo partly drawn) [β-L-2′-deoxy-5-vinyluridine] | – | selectivity for EBV-TK
13 | C=Cc1cn([C@H]2O[C@@H](CO)C(O)C2O)c(=O)[nH]c1=O (stereo partly drawn) [β-L-5-vinyluridine] | – | selectivity for EBV-TK
